Where two headings read alike, the source gives them in different places.
Key:
Assay type in all cases: biochemical
[1] = target: full-length SHP2-E76K oncogenic mutant (Homo sapiens (Human), UniProt Q06124, E76K); assay: DiFMUP fluorescence intensity phosphatase inhibition assay, SHP2-E76K; details: DiFMUP at Km (20 μM), 10-point dose-response; read-out: SHP2-E76K IC50
Source text: (§1) To test the synthesized compounds for their potential to inhibit SHP2 activity, a fluorescence intensity-based assay using 6,8-difluoro-4-methylumbelliferyl phosphate (DiFMUP) as the substrate was adapted for three recombinant SHP2 constructs: 1) the SHP2 catalytic domain (SHP2cat; residues 248-527), 2) the full-length SHP2-E76K oncogenic mutant, and 3) the full-length SHP2 wild-type (SHP2-WT). The recombinant SHP2 proteins were expressed and purified. A dually phosphorylated peptide derived from the insulin receptor substrate 1 (IRS-1) served as a surrogate binding protein and was used to activate SHP2-WT. […] Michaelis-Menten experiments to determine the DiFMUP Michaelis-Menten constant (Kmn) for each SHP2 construct were performed and yielded the following values: SHP2-WT, Km=60 μM; SHP2-E76K, Km=20 μM; SHP2cat, Km=20 μM. Relative maximum rates (Vmax) of the DiFMUP reactions were as follows: SHP2-WT, Vmax=871 AFU/min; SHP2-E76K, Vmax, =2730 AFU/min; SHP2cat, Vmax=2912 AFU/min. IC50 values for each compound were determined from initial rates in 10-point dose-response assays using DiFMUP at a concentration corresponding to its Km value for the respective SHP2 construct.
(§2) SHP2 inhibitors were tested at room temperature (RT) in a 384-well plate format standard phosphatase fluorescence intensity assay using DiFMUP (Invitrogen/Thermo Fisher Scientific, Carlsbad, CA) as a substrate and a total reaction volume of 25 μL. SHP2 inhibitors or vehicle (DMSO) were spotted in triplicate into a black Greiner FLUOTRAC™ 200 384-well microplate (#781076, Greiner) for a 10-point dose-response assay using an Echo®555 Liquid Handler (Labcyte, Inc., San Jose, CA). PTP working solutions were prepared at a 0.625 nM concentration (for a final concentration of 0.5 nM) in buffer containing 50 mM Bis-Tris pH 6.0, 50 mM NaCl, 5 mM DTT, and 0.01% Tween® 20. Prior to the assay, a dually phosphorylated insulin receptor substrate 1 (IRS-1) peptide [625 nM (500 nMfinal) (30)] was added to full-length WT SHP2 working solutions and incubated for 20 min. DiFMUP working solutions at 5× final concentration were prepared in 50 mM Bis-Tris pH 6.0, 50 mMNaCl, and 0.01% Tween 20. 20 μL of PTP working solution was dispensed into the microplate and incubated with inhibitor for 20 min at RT. […] The reaction was initiated by addition of 5 μL DiFMUP working solutions. Fluorescence intensity was measured in kinetic mode (every minute for 7 or 10 min) using a Tecan Spark® Multimode Microplate Reader (Tecan, Groedig, Austria) with an excitation wavelength of 360 nm and an emission wavelength of 460 nm. The initial rates were determined from the linear progression curves of the PTP reaction. The nonenzymatic hydrolysis of the substrate was corrected by using a control without addition of enzyme. IC50 values were calculated from the corrected initial rates by nonlinear regression using the program GraphPad Prism (GraphPad Software, Inc., San Diego, CA) Version 8. Dose-response inhibition assays of SHP2cat using the substrate OMFP were performed similarly as described above for DiFMUP. OMFP was used at a concentration corresponding to its Km value for SHP2cat (50 μM final). Fluorescence intensity was measured in kinetic mode (every minute for 10 min) using a Tecan Spark Multimode Microplate Reader with an excitation wavelength of 485 nm and an emission wavelength of 535 nm. Initial rates were determined and IC50 vales calculated as described above.

[2] = target: full-length SHP2 wild-type (SHP2-WT) (Homo sapiens (Human), UniProt Q06124); assay: DiFMUP fluorescence intensity phosphatase inhibition assay, SHP2-WT activated with IRS-1 peptide; details: DiFMUP at Km (60 μM), IRS-1 peptide activated
full-length SHP2 wild-type (SHP2-WT), sequence (Q06124 whole entry, other chains not shown): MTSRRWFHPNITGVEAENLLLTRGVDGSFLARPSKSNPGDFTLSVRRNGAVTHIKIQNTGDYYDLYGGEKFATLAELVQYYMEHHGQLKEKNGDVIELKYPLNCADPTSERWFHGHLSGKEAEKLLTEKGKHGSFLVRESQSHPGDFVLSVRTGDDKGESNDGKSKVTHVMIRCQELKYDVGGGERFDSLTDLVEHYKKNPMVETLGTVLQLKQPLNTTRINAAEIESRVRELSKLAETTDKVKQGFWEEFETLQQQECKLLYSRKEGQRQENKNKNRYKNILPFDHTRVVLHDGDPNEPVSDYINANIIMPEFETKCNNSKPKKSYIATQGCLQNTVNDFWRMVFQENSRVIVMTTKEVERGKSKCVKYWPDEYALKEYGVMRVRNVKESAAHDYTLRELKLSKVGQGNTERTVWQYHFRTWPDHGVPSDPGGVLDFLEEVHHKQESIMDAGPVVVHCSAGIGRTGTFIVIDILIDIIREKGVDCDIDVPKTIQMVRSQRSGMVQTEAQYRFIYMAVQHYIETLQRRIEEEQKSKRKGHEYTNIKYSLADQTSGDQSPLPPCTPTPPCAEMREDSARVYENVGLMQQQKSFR
Source text: as §1, §2

[3] = target: SHP2 catalytic domain (SHP2cat; residues 248-527) (Homo sapiens (Human), UniProt Q06124); assay: DiFMUP fluorescence intensity phosphatase inhibition assay, SHP2cat
SHP2 catalytic domain (SHP2cat; residues 248-527), sequence (Q06124 248-527): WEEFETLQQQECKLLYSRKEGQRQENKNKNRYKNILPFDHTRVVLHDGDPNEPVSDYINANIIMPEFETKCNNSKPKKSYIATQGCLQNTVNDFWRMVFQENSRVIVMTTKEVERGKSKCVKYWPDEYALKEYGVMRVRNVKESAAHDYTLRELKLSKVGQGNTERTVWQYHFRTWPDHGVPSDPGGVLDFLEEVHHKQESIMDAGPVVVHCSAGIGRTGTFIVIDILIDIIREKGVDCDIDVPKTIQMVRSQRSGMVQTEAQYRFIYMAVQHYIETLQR
Source text: as §1, §2

PTP1B catalytic domain = PTP1B catalytic domain (Homo sapiens (Human), UniProt P18031); assay: DiFMUP phosphatase inhibition assay, PTP1B; details: catalytic domain, DiFMUP at Km (25 μM)
PTP1B catalytic domain, sequence (P18031 1-300): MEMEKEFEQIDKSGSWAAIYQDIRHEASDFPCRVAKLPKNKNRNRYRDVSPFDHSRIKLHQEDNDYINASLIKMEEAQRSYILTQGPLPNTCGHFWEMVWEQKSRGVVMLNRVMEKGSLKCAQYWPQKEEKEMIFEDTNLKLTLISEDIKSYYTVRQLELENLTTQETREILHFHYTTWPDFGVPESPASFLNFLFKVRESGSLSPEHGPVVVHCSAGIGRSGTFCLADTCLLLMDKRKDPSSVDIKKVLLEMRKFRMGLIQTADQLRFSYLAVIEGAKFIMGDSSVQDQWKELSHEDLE
Protocol: (§3) Selectivity is one of the biggest challenges in PTP inhibitor development. […] Similar to SHP2, we adapted a 384-well plate format DiFMUP assay for recombinant PTP1B and STEP and performed Michaelis-Menten experiments to determine DiFMUP Km values for each phosphatase. IC50 values of our inhibitors for PTP1B and STEP were determined in 10-point dose-response assays with DiFMUP used at the concentration corresponding to the respective Km value. […] Other inhibitors with good relative selectivity for SHP2 included #02 (13-fold selective over PTP1B; 73-fold selective over STEP) and #05 (5-fold selective over PTP1B; >71-fold selective over STEP).
as §2

[4] = target: striatal-enriched tyrosine phosphatase (STEP) catalytic domain (Homo sapiens (Human), UniProt P54829); assay: DiFMUP phosphatase inhibition assay, STEP; details: catalytic domain, DiFMUP at Km (4 μM)
striatal-enriched tyrosine phosphatase (STEP) catalytic domain, sequence (P54829 280-565 limits assumed): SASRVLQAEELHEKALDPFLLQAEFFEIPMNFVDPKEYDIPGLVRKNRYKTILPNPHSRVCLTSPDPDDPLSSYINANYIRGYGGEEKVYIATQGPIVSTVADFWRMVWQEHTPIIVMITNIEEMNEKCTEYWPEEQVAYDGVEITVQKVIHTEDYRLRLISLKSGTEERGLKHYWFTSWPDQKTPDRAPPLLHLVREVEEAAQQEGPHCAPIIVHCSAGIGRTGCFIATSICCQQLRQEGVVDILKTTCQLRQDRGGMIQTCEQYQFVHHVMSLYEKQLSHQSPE
Protocol: as §3, §2

[5] = DiFMUP at Km (20 μM), read-out: SHP2cat IC50

full-length SHP2-E76K oncogenic mutant, sequence (Q06124 whole entry E76K, the tested form may be a part): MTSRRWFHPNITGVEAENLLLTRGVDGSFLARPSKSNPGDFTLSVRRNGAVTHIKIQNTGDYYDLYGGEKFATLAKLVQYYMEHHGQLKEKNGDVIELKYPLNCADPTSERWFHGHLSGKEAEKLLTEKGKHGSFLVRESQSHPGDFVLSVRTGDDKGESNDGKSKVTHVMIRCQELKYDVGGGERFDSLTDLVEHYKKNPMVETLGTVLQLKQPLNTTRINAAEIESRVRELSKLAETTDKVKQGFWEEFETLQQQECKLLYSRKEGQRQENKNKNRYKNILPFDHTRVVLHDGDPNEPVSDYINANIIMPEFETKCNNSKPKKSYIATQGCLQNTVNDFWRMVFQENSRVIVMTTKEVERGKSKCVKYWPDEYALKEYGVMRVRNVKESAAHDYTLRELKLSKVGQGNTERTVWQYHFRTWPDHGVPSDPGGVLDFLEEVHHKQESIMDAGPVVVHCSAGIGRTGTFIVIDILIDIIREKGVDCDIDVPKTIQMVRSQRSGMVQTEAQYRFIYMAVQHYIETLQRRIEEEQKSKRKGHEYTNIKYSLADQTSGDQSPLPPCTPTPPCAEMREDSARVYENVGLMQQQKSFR

SMILES | IC50 [1] [nM] | IC50 [2] [nM] | IC50 [3, 5] [nM] | IC50 ([3]; catalytic domain, DiFMUP at Km, read-out: SHP2 IC50) [nM] | IC50 (PTP1B catalytic domain) [nM] | IC50 [4] [nM]
O=C1CCC/C1=C\c1ccc(-c2ccc(O)c(C(=O)Nc3ccccc3)c2)o1 [#03, 2-Hydroxy-5-(5-((2-oxocyclopentylidene)methyl)furan-2-yl)-N-phenylbenzamide] | 1000 to 20000 | 1000 to 20000 | 1000 to 20000 | 1100 | 1900 | 27000
O=C1/C(=C/c2ccc(-c3ccc(O)c(C(=O)N4CCCCC4)c3)o2)Sc2ccccc21 [#12, (Z)-2-((5-(4-Hydroxy-3-(piperidine-1-carbonyl)phenyl)furan-2-yl)methylene)benzo[b]thiophen-3(2H)-one] | 1000 to 20000 | 20000 to 100000 | 1000 to 20000 |  |  | 
O=C1/C(=C/c2ccc(-c3ccc(O)c(C(=O)O)c3)o2)CCC/C1=C\c1ccc(-c2ccc(O)c(C(=O)O)c2)o1 [#40] | ≤ 1000 | ≤ 1000 | ≤ 1000 |  |  | 
O=C(/C=C/c1ccc(-c2cccc(C(=O)O)c2)o1)/C=C/c1ccc(-c2cccc(C(=O)O)c2)o1 [#41] | ≤ 1000 | ≤ 1000 | ≤ 1000 |  |  | 
O=C1/C(=C/c2ccc(-c3cccc(C(=O)O)c3)o2)CC/C1=C\c1ccc(-c2cccc(C(=O)O)c2)o1 [#42] | ≤ 1000 | ≤ 1000 | ≤ 1000 |  |  | 
O=C(/C=C/c1ccc(-c2ccc(O)c(C(=O)O)c2)o1)c1cccc(C(=O)/C=C/c2ccc(-c3ccc(O)c(C(=O)O)c3)o2)c1 [#43] | ≤ 1000 | 1000 to 20000 | ≤ 1000 |  |  | 
O=C(O)c1cccc(-c2ccc(/C=C/C(=O)c3cccc(C(=O)/C=C/c4ccc(-c5cccc(C(=O)O)c5)o4)c3)o2)c1 [#45] | 1000 to 20000 | 1000 to 20000 | 1000 to 20000 |  |  | 
N#Cc1cccc(-c2ccc(/C=C/C(=O)/C=C/c3ccc(-c4cccc(C#N)c4)o3)o2)c1 [#46] | 1000 to 20000 | 1000 to 20000 | 1000 to 20000 |  |  | 
